Measured values reported in PubChem BioAssay AID2060912 (Molecular Pharmacology Branch, DTP, NCI, 2025).

System: HUVEC/MSC spheroids viability
Experiment: Human HUVEC/MSC cell line growth inhibition [KRAS2];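 on viability, T/C: percent of DMSO vehicle control luminescence so 100% = untreated viability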
Details: for IC50: curve of first compound; for viability, T/C: stronger effect = lower value
In short: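 Endothelial cells (HUVEC) plus mesenchymal stem cells, cultured at 37 °C/5% CO2 and assembled into spheroids without cancer cells, served as a stromal control. Drug pairs and single agents spanned half-log ranges anchored to clinical Cmax.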

CC(=O)Nc1cccc(-n2c(=O)n(C3CC3)c(=O)c3c(Nc4ccc(I)cc4F)n(C)c(=O)c(C)c32)c1 + CC1OCC2(CCN(c3cnc(Sc4ccnc(N)c4Cl)c(N)n3)CC2)C1N
IC50 (second compound 0.0316 µM): 18.1 nM | IC50 (second compound 0.1 µM): 15.9 nM | IC50 (second compound 0.316 µM): 16.2 nM | IC50 (second compound 1 µM): 5.18 nM | IC50 (second compound 3.16 µM): 1.27 nM | IC50 (second compound 10 µM): < 0.0949 nM | viability, T/C (second compound 0.0316 µM, first compound 94.9 pM): 110% | viability, T/C (second compound 0.0316 µM, first compound 0.0003 µM): 142% | viability, T/C (second compound 0.0316 µM, first compound 0.000949 µM): 113% | viability, T/C (second compound 0.0316 µM, first compound 0.003 µM): 118% | viability, T/C (second compound 0.0316 µM, first compound 0.00949 µM): 82.6% | viability, T/C (second compound 0.0316 µM, first compound 0.03 µM): 24.4% | viability, T/C (second compound 0.1 µM, first compound 94.9 pM): 118% | viability, T/C (second compound 0.1 µM, first compound 0.0003 µM): 106% | viability, T/C (second compound 0.1 µM, first compound 0.000949 µM): 104% | viability, T/C (second compound 0.1 µM, first compound 0.003 µM): 89.2% | viability, T/C (second compound 0.1 µM, first compound 0.00949 µM): 77.5% | viability, T/C (second compound 0.1 µM, first compound 0.03 µM): 21.9% | viability, T/C (second compound 0.316 µM, first compound 94.9 pM): 92.7% | viability, T/C (second compound 0.316 µM, first compound 0.0003 µM): 95.2% | viability, T/C (second compound 0.316 µM, first compound 0.000949 µM): 87.9% | viability, T/C (second compound 0.316 µM, first compound 0.003 µM): 81.8% | viability, T/C (second compound 0.316 µM, first compound 0.00949 µM): 74.5% | viability, T/C (second compound 0.316 µM, first compound 0.03 µM): 24.3% | viability, T/C (second compound 1 µM, first compound 94.9 pM): 85.6% | viability, T/C (second compound 1 µM, first compound 0.0003 µM): 75.1% | viability, T/C (second compound 1 µM, first compound 0.000949 µM): 69.1% | viability, T/C (second compound 1 µM, first compound 0.003 µM): 55.7% | viability, T/C (second compound 1 µM, first compound 0.00949 µM): 46% | viability, T/C (second compound 1 µM, first compound 0.03 µM): 10.9% | viability, T/C (second compound 3.16 µM, first compound 94.9 pM): 71.2% | viability, T/C (second compound 3.16 µM, first compound 0.0003 µM): 69.5% | viability, T/C (second compound 3.16 µM, first compound 0.000949 µM): 49.7% | viability, T/C (second compound 3.16 µM, first compound 0.003 µM): 39.9% | viability, T/C (second compound 3.16 µM, first compound 0.00949 µM): 22.7% | viability, T/C (second compound 3.16 µM, first compound 0.03 µM): 3.47% | viability, T/C (second compound 10 µM, first compound 94.9 pM): 48.7% | viability, T/C (second compound 10 µM, first compound 0.0003 µM): 39% | viability, T/C (second compound 10 µM, first compound 0.000949 µM): 33.3% | viability, T/C (second compound 10 µM, first compound 0.003 µM): 12.5% | viability, T/C (second compound 10 µM, first compound 0.00949 µM): 5.14% | viability, T/C (second compound 10 µM, first compound 0.03 µM): 0.77%
